Like-named read-outs stand apart in the source and are kept apart here. *1 amine or outer side, *2 acyl side, *3 side chain or, on linkers, in order; H or OH if unused. Where a SMILES comes first, the peptide text is derived from it. Side-chain parts run from the residue outwards. [ ]: non-standard residue; d: D form. The star is where a group is joined. C20 diacid = O=C(O)CCCCCCCCCCCCCCCCCCC(=O)*; γGlu = O=C(O)[C@H](CCC(=O)[*:2])N[*:1]; AEEA = NCCOCCOCC(=O)O; Aib = CC(C)(N)C(=O)O
Key:
[1] = Chemical stability (RP-HPLC normalized purity after incubation at 40° C.); type: physicochemical; conditions: 14-day incubation, 0.2 mg/ml, normalized purity (area-%); for pH 7 normalized stability: pH 7, 40° C.
Method: Samples of each test peptide were dissolved in MILLIQ™ water, and the pH of the solution was adjusted to pH 6, 7, 7.5 or 9 using either HCl or NaOH. The final peptide concentration was 0.2 mg/ml. Samples were placed in glass vials and incubated at 40° C. The samples were analyzed by RP-HPLC on a C18 column with gradient elution using an acetonitrile/TFA/water eluent system. The area-percentage (area-%) of the main peak after incubation time T=t (relative to time T=0) was determined by UV spectroscopy at 220 nm.
The purity was first determined as follows: Purity(area-%)=(area of main peak/total area of all peaks)×100.
The purity was then normalized between time points by setting purity at time 0 (T=0) to 100 for each pH value for a given peptide, as follows: Normalized area-% at time t(T=t)=[area-%(T=t)/area-%(T=0)]×100.
The chemical stability assessment results after 14-day incubation (in the form of normalized purity values) are summarized in Table 4.

[2] = Solubility assessment (turbidity absorbance at 325 nm); type: physicochemical
Method: A stock solution of the test peptide (2 mg/ml; determined from the weighed amount of peptide) in demineralized water adjusted to pH 2.5 with HCl was prepared, and aliquots were diluted 1:1 in 100 mM acetate buffer (pH 4.0 and pH 5.0), 100 mM histidine buffer (pH 6.0 and pH 7.0) and 100 mM phosphate buffer (pH 6.0, pH 7.0 and pH 7.5), respectively, and loaded in a standard flat-bottom, non-sterile 96-well UV Microplate. The absorbance of samples (single samples, n=1) at 280 and 325 nm was measured in an absorbance-based plate reader, which was preheated to ambient temperature (typically 25° C.).

[3] = 100 mM acetate buffer pH 4.0, ambient temperature, read-out: Solubility Acetate buffer pH 4
[4] = 100 mM acetate buffer pH 5.0, ambient temperature, read-out: Solubility Acetate buffer pH 5
[5] = 100 mM histidine buffer pH 6.0, ambient temperature, read-out: Solubility Histidine buffer pH 6
[6] = 100 mM histidine buffer pH 7.0, ambient temperature, read-out: Solubility Histidine buffer pH 7
[7] = 100 mM phosphate buffer pH 6.0, ambient temperature, read-out: Solubility Phosphate buffer pH 6
[8] = 100 mM phosphate buffer pH 7.0, ambient temperature, read-out: Solubility Phosphate buffer pH 7
[9] = 100 mM phosphate buffer pH 7.5, ambient temperature, read-out: Solubility Phosphate buffer pH 7.5

Structure (SMILES)	pH 7 normalized stability [1]	pH 6 normalized stability ([1]; pH 6, 40° C.)	solubility [2, 3] [µg/mL]	solubility [2, 4] [µg/mL]	solubility [2, 5] [µg/mL]	solubility [2, 6] [µg/mL]	solubility [2, 7] [µg/mL]	solubility [2, 8] [µg/mL]	solubility [2, 9] [µg/mL]
CC[C@H](C)[C@H](NC(=O)[C@H](Cc1ccccc1)NC(=O)[C@H](CC(=O)O)NC(=O)[C@H](CCCNC(=N)N)NC(=O)[C@H](C)NC(=O)[C@H](C)NC(=O)[C@H](CCC(N)=O)NC(=O)[C@H](CCC(=O)O)NC(=O)[C@H](CC(=O)O)NC(=O)[C@H](CC(C)C)NC(=O)[C@@H](NC(=O)[C@@H](NC(=O)[C@H](C)NC(=O)[C@H](CCCCNC(=O)COCCOCCNC(=O)COCCOCCNC(=O)[C@H](CCCCN)NC(=O)[C@H](CCC(=O)O)NC(=O)[C@H](CCCCN)NC(=O)CC[C@H](NC(=O)CCCCCCCCCCCCCCCCCCC(=O)O)C(=O)O)NC(=O)[C@H](CCC(=O)O)NC(=O)[C@H](CO)NC(=O)[C@@H](NC(=O)[C@H](Cc1ccccc1)NC(=O)[C@H](CO)NC(=O)CNC(=O)[C@H](CCC(=O)O)NC(=O)C(C)(C)NC(=O)[C@@H](N)Cc1c[nH]cn1)[C@@H](C)O)[C@@H](C)O)[C@@H](C)CC)C(=O)N[C@@H](C)C(=O)N[C@@H](Cc1c[nH]c2ccccc12)C(=O)N[C@@H](CC(C)C)C(=O)N[C@H](C(=O)N[C@@H](CCC(=O)O)C(=O)N[C@@H](Cc1c[nH]cn1)C(=O)N[C@@H](CCCCN)C(=O)N[C@H](C(=O)N[C@H](C(=O)N[C@@H](CC(=O)O)C(=O)O)[C@@H](C)O)[C@@H](C)CC)[C@@H](C)CC [Compound 55] (H-H[Aib]EGSFTSEK([AEEA-AEEA-Lys-Glu-Lys-γGlu-C20 diacid])ATILDEQAARDFIAWLIEHKITD-OH)	A (>90% normalised stability)								
CC[C@H](C)[C@H](NC(=O)[C@H](Cc1ccccc1)NC(=O)[C@H](CC(=O)O)NC(=O)[C@H](CCCNC(=N)N)NC(=O)[C@H](C)NC(=O)[C@H](C)NC(=O)[C@H](CCC(N)=O)NC(=O)[C@H](CCCCNC(=O)CC[C@H](NC(=O)CCCCCCCCCCCCCCCCC(=O)O)C(=O)O)NC(=O)[C@H](CC(=O)O)NC(=O)[C@H](CC(C)C)NC(=O)[C@@H](NC(=O)[C@@H](NC(=O)[C@H](C)NC(=O)[C@H](CC(C)C)NC(=O)[C@H](CCC(=O)O)NC(=O)[C@H](CO)NC(=O)[C@H](CO)NC(=O)[C@H](Cc1ccccc1)NC(=O)[C@H](CO)NC(=O)CNC(=O)[C@H](CCC(=O)O)NC(=O)C(C)(C)NC(=O)[C@@H](N)Cc1c[nH]cn1)[C@@H](C)O)[C@@H](C)CC)C(=O)N[C@@H](C)C(=O)N[C@@H](Cc1c[nH]c2ccccc12)C(=O)N[C@@H](CC(C)C)C(=O)N[C@H](C(=O)N[C@@H](CCC(N)=O)C(=O)N[C@@H](Cc1c[nH]cn1)C(=O)N[C@@H](CCCCN)C(=O)N[C@H](C(=O)N[C@H](C(=O)N[C@@H](CC(=O)O)C(=O)O)[C@@H](C)O)[C@@H](C)CC)[C@@H](C)CC [B, reference compound] (HELM PEPTIDE1{H.[Aib].E.G.S.F.S.S.E.L.A.T.I.L.D.K.Q.A.A.R.D.F.I.A.W.L.I.Q.H.K.I.T.D}|PEPTIDE2{[O=C(O)CCCCCCCCCCCCCCCCC(=O)[*:2]].[gGlu]}$PEPTIDE1,PEPTIDE2,16:R3-2:R2$$$V2.0)	A (>90% normalised stability)	A (>90% normalised stability)							
CC[C@H](C)[C@H](NC(=O)[C@H](Cc1ccccc1)NC(=O)[C@H](CC(=O)O)NC(=O)[C@H](CCCNC(=N)N)NC(=O)[C@H](C)NC(=O)[C@H](C)NC(=O)[C@H](CCC(N)=O)NC(=O)[C@H](CCCCNC(=O)CC[C@H](NC(=O)CCCCCCCCCCCCCCCCC(=O)O)C(=O)O)NC(=O)[C@H](CC(=O)O)NC(=O)[C@H](CC(C)C)NC(=O)[C@@H](NC(=O)[C@@H](NC(=O)[C@H](C)NC(=O)[C@H](CC(C)C)NC(=O)[C@H](CCC(=O)O)NC(=O)[C@H](CO)NC(=O)[C@H](CO)NC(=O)[C@H](Cc1ccccc1)NC(=O)[C@@H](NC(=O)CNC(=O)[C@H](CCC(=O)O)NC(=O)C(C)(C)NC(=O)[C@@H](N)Cc1c[nH]cn1)[C@@H](C)O)[C@@H](C)O)[C@@H](C)CC)C(=O)N[C@@H](C)C(=O)N[C@@H](Cc1c[nH]c2ccccc12)C(=O)N[C@@H](CC(C)C)C(=O)N[C@H](C(=O)N[C@@H](CCC(=O)O)C(=O)N[C@@H](Cc1c[nH]cn1)C(=O)N[C@@H](CCCCN)C(=O)N[C@H](C(=O)N[C@H](C(=O)N[C@@H](CC(=O)O)C(=O)O)[C@@H](C)O)[C@@H](C)CC)[C@@H](C)CC [Compound 20] (HELM PEPTIDE1{H.[Aib].E.G.T.F.S.S.E.L.A.T.I.L.D.K.Q.A.A.R.D.F.I.A.W.L.I.E.H.K.I.T.D}|PEPTIDE2{[O=C(O)CCCCCCCCCCCCCCCCC(=O)[*:2]].[gGlu]}$PEPTIDE1,PEPTIDE2,16:R3-2:R2$$$V2.0)			< 1000	< 1000	≥ 1000	≥ 1000	≥ 1000	≥ 1000	≥ 1000
CC[C@H](C)[C@H](NC(=O)[C@H](Cc1ccccc1)NC(=O)[C@H](CC(=O)O)NC(=O)[C@H](CCCNC(=N)N)NC(=O)[C@H](C)NC(=O)[C@H](C)NC(=O)[C@H](CC(C)C)NC(=O)[C@H](CC(N)=O)NC(=O)[C@H](CC(=O)O)NC(=O)[C@H](CC(C)C)NC(=O)[C@@H](NC(=O)[C@@H](NC(=O)[C@H](CC(N)=O)NC(=O)[C@H](CCSC)NC(=O)[C@H](CCC(=O)O)NC(=O)[C@H](CC(=O)O)NC(=O)[C@H](CO)NC(=O)[C@H](Cc1ccccc1)NC(=O)[C@H](CO)NC(=O)CNC(=O)[C@H](CC(=O)O)NC(=O)CNC(=O)[C@@H](N)Cc1c[nH]cn1)[C@@H](C)O)[C@@H](C)CC)C(=O)N[C@@H](CC(N)=O)C(=O)N[C@@H](Cc1c[nH]c2ccccc12)C(=O)N[C@@H](CC(C)C)C(=O)N[C@H](C(=O)N[C@@H](CCC(N)=O)C(=O)N[C@H](C(=O)N[C@@H](CCCCN)C(=O)N[C@H](C(=O)N[C@H](C(=O)N[C@@H](CC(=O)O)C(=O)O)[C@@H](C)O)[C@@H](C)CC)[C@@H](C)O)[C@@H](C)CC [Teduglutide, [Gly2]-hGLP-2 (1-33), reference compound]			< 1000	< 1000	< 1000	≥ 1000	< 1000	< 1000	≥ 1000
CC[C@H](C)[C@H](NC(=O)[C@H](Cc1ccccc1)NC(=O)[C@H](CC(=O)O)NC(=O)[C@H](CCCNC(=N)N)NC(=O)[C@H](C)NC(=O)[C@H](C)NC(=O)[C@H](CCC(N)=O)NC(=O)[C@H](CCCCNC(=O)CC[C@H](NC(=O)CCCCCCCCCCCCCCCCC(=O)O)C(=O)O)NC(=O)[C@H](CC(=O)O)NC(=O)[C@H](CC(C)C)NC(=O)[C@@H](NC(=O)[C@@H](NC(=O)[C@H](C)NC(=O)[C@H](CC(C)C)NC(=O)[C@H](CCC(=O)O)NC(=O)[C@H](CO)NC(=O)[C@@H](NC(=O)[C@H](Cc1ccccc1)NC(=O)[C@H](CO)NC(=O)CNC(=O)[C@H](CCC(=O)O)NC(=O)C(C)(C)NC(=O)[C@@H](N)Cc1c[nH]cn1)[C@@H](C)O)[C@@H](C)O)[C@@H](C)CC)C(=O)N[C@@H](C)C(=O)N[C@@H](Cc1c[nH]c2ccccc12)C(=O)N[C@@H](CC(C)C)C(=O)N[C@H](C(=O)N[C@@H](Cc1ccc(O)cc1)C(=O)N[C@@H](Cc1c[nH]cn1)C(=O)N[C@@H](CCCCN)C(=O)N[C@H](C(=O)N[C@H](C(=O)N[C@@H](CC(=O)O)C(=O)O)[C@@H](C)O)[C@@H](C)CC)[C@@H](C)CC [Compound 27] (HELM PEPTIDE1{H.[Aib].E.G.S.F.T.S.E.L.A.T.I.L.D.K.Q.A.A.R.D.F.I.A.W.L.I.Y.H.K.I.T.D}|PEPTIDE2{[O=C(O)CCCCCCCCCCCCCCCCC(=O)[*:2]].[gGlu]}$PEPTIDE1,PEPTIDE2,16:R3-2:R2$$$V2.0)			< 1000	< 1000	≥ 1000	≥ 1000	≥ 1000	≥ 1000	≥ 1000
